Experimental data from PubChem BioAssay AID1259407 (Chemical Carcinogenesis Research Information System (CCRIS), 2018).
Calls of active or inactive are those of the source. How the calls were made is not given here.

Test system: CCRIS mutagenicity, Ames/micronucleus/aberration tests
Test: CCRIS mutagenicity studies
[1] = Test System: AMES SALMONELLA TYPHIMURIUM, Strain/Indicator: TA98, Metabolic Activation: NONE, Method: STANDARD PLATE
[2] = Test System: AMES SALMONELLA TYPHIMURIUM, Strain/Indicator: TA100, Metabolic Activation: NONE, Method: STANDARD PLATE
[3] = Test System: AMES SALMONELLA TYPHIMURIUM, Strain/Indicator: TA1535, Metabolic Activation: NONE, Method: STANDARD PLATE
[4] = Test System: AMES SALMONELLA TYPHIMURIUM, Strain/Indicator: TA1537, Metabolic Activation: NONE, Method: STANDARD PLATE
[5] = Test System: AMES SALMONELLA TYPHIMURIUM, Strain/Indicator: TA1538, Metabolic Activation: NONE, Method: STANDARD PLATE

In the case of Cc1ccc(C(O)(P(=O)(O)O)P(=O)(O)O)cc1N(CCCl)CCCl, the mutagenic call [1] is reported as “inactive; negative”, the mutagenic call (Test System: AMES SALMONELLA TYPHIMURIUM, Strain/Indicator: TA98, Metabolic Activation: RAT, LIVER, S-9, AROCLOR, Method: STANDARD PLATE) is reported as “inactive; negative” and the mutagenic call [2] is reported as “inactive; negative”. For the same compound, the mutagenic call (Test System: AMES SALMONELLA TYPHIMURIUM, Strain/Indicator: TA100, Metabolic Activation: RAT, LIVER, S-9, AROCLOR, Method: STANDARD PLATE) was “inactive; negative”, the mutagenic call [3] was “inactive; negative” and the mutagenic call (Test System: AMES SALMONELLA TYPHIMURIUM, Strain/Indicator: TA1535, Metabolic Activation: RAT, LIVER, S-9, AROCLOR, Method: STANDARD PLATE) was “active; positive”. For the same compound, the mutagenic call [4] was “inactive; negative”, the mutagenic call (Test System: AMES SALMONELLA TYPHIMURIUM, Strain/Indicator: TA1537, Metabolic Activation: RAT, LIVER, S-9, AROCLOR, Method: STANDARD PLATE) was “inactive; negative” and the mutagenic call [5] was “inactive; negative”. For the same compound, the mutagenic call (Test System: AMES SALMONELLA TYPHIMURIUM, Strain/Indicator: TA1538, Metabolic Activation: RAT, LIVER, S-9, AROCLOR, Method: STANDARD PLATE) was “inactive; negative”.
For CCC/C=C/C(=O)O[C@@H]1C(C)(C)C[C@@H]2C34CC3(C(C=O)=C[C@]12O)[C@@H](O)OC4=O (some centres undefined), the mutagenic call (Test System: AMES SALMONELLA TYPHIMURIUM, Strain/Indicator: TA98, Metabolic Activation: NONE, Method: SPOT TEST) was “active; positive”, the mutagenic call [1] was “active; positive” and the mutagenic call (Test System: AMES SALMONELLA TYPHIMURIUM, Strain/Indicator: TA100, Metabolic Activation: NONE, Method: SPOT TEST) was “inactive; negative”. The mutagenic call [2] was “active; positive”, the mutagenic call (Test System: AMES SALMONELLA TYPHIMURIUM, Strain/Indicator: TA1535, Metabolic Activation: NONE, Method: SPOT TEST) was “inactive; negative” and the mutagenic call (Test System: AMES SALMONELLA TYPHIMURIUM, Strain/Indicator: TA1538, Metabolic Activation: NONE, Method: SPOT TEST) was “inactive; negative”. For the same compound, the mutagenic call (Test System: AMES SALMONELLA TYPHIMURIUM, Strain/Indicator: TA2637, Metabolic Activation: NONE, Method: STANDARD PLATE) was “active; positive”.
For Nc1cc(Cl)c(Cl)cc1Cl, the mutagenic call (Test System: UDS RODENT HEPATOCYTES, Strain/Indicator: THY INCORP (NON-S-PHASE), Metabolic Activation: NONE, Method: AUTORADIOGRAPHY) was “inactive; negative”.
In the case of C=CC(Cl)CCl (centres undefined), the mutagenic call (Test System: AMES SALMONELLA TYPHIMURIUM, Strain/Indicator: TA102, Metabolic Activation: RAT LIVER S-9, PHENOBARBITAL AND 5,6-BENZOFLAVONE, Method: STANDARD PLATE) is reported as “inactive; negative”, the mutagenic call (Test System: AMES SALMONELLA TYPHIMURIUM, Strain/Indicator: TA2638, Metabolic Activation: RAT LIVER S-9, PHENOBARBITAL AND 5,6-BENZOFLAVONE, Method: STANDARD PLATE) is reported as “inactive; negative” and the mutagenic call (Test System: E. COLI, Strain/Indicator: WP2 (PKM101), Metabolic Activation: RAT LIVER S-9, PHENOBARBITAL AND 5,6-BENZOFLAVONE, Method: STANDARD PLATE) is reported as “inactive; negative”. For the same compound, the mutagenic call (Test System: E. COLI, Strain/Indicator: WP2 UVRA (PKM101), Metabolic Activation: RAT LIVER S-9, PHENOBARBITAL AND 5,6-BENZOFLAVONE, Method: STANDARD PLATE) was “inactive; negative”.
O=C(Nc1nc(-c2ccc([N+](=O)[O-])o2)cs1)C(F)(F)F was tested, and the mutagenic call (Test System: AMES SALMONELLA TYPHIMURIUM, Strain/Indicator: TA100, Metabolic Activation: RAT, LIVER, S-9, KC500 OR PHENOBARBITAL, Method: LIQUID SUSPENSION) was “active; positive” and the mutagenic call (Test System: E. COLI WP2, Strain/Indicator: WP2, Metabolic Activation: NONE, Method: SPOT) was “active; positive”.
In the case of CN(C)C(=O)Oc1ccc[n+](C)c1, the mutagenic call (Test System: AMES SALMONELLA TYPHIMURIUM, Strain/Indicator: TA98, Metabolic Activation: HAMSTER, LIVER, S-9, AROCLOR 1254, Method: STANDARD PLATE) is reported as “inactive; negative”, the mutagenic call [1] is reported as “inactive; negative” and the mutagenic call (Test System: AMES SALMONELLA TYPHIMURIUM, Strain/Indicator: TA98, Metabolic Activation: RAT, LIVER, S-9, AROCLOR 1254, Method: STANDARD PLATE) is reported as “inactive; negative”. For the same compound, the mutagenic call (Test System: AMES SALMONELLA TYPHIMURIUM, Strain/Indicator: TA100, Metabolic Activation: HAMSTER, LIVER, S-9, AROCLOR 1254, Method: STANDARD PLATE) was “inactive; negative”, the mutagenic call [2] was “inactive; negative” and the mutagenic call (Test System: AMES SALMONELLA TYPHIMURIUM, Strain/Indicator: TA100, Metabolic Activation: RAT, LIVER, S-9, AROCLOR 1254, Method: STANDARD PLATE) was “inactive; negative”. The mutagenic call (Test System: AMES SALMONELLA TYPHIMURIUM, Strain/Indicator: TA1535, Metabolic Activation: HAMSTER, LIVER, S-9, AROCLOR 1254, Method: STANDARD PLATE) was “inactive; negative”, the mutagenic call [3] was “inactive; negative” and the mutagenic call (Test System: AMES SALMONELLA TYPHIMURIUM, Strain/Indicator: TA1535, Metabolic Activation: RAT, LIVER, S-9, AROCLOR 1254, Method: STANDARD PLATE) was “inactive; negative”. The mutagenic call (Test System: AMES SALMONELLA TYPHIMURIUM, Strain/Indicator: TA1537, Metabolic Activation: HAMSTER, LIVER, S-9, AROCLOR 1254, Method: STANDARD PLATE) was “inactive; negative”, the mutagenic call [4] was “inactive; negative” and the mutagenic call (Test System: AMES SALMONELLA TYPHIMURIUM, Strain/Indicator: TA1537, Metabolic Activation: RAT, LIVER, S-9, AROCLOR 1254, Method: STANDARD PLATE) was “inactive; negative”. For the same compound, the mutagenic call (Test System: AMES SALMONELLA TYPHIMURIUM, Strain/Indicator: TA1538, Metabolic Activation: HAMSTER, LIVER, S-9, AROCLOR 1254, Method: STANDARD PLATE) was “inactive; negative”, the mutagenic call [5] was “inactive; negative” and the mutagenic call (Test System: AMES SALMONELLA TYPHIMURIUM, Strain/Indicator: TA1538, Metabolic Activation: RAT, LIVER, S-9, AROCLOR 1254, Method: STANDARD PLATE) was “inactive; negative”. For the same compound, the mutagenic call (Test System: MOUSE LYMPHOMA, Strain/Indicator: L5178Y (TK+/TK-), Metabolic Activation: NONE, Method: SUSPENSION/PLATE) was “inactive; negative. reevaluation of results: negative” and the mutagenic call (Test System: MOUSE LYMPHOMA, Strain/Indicator: L5178Y (TK+/TK-), Metabolic Activation: RAT, LIVER, S-9, AROCLOR 1254, Method: SUSPENSION/PLATE) was “active; positive. reevaluation of results: equivocal”.
In the case of ONc1ccc(-c2ccccc2)cc1, the mutagenic call (Test System: AMES SALMONELLA TYPHIMURIUM, Strain/Indicator: TA98(1,8-DNP6), Metabolic Activation: NONE, Method: PREINCUBATION) is reported as “active; positive”, the mutagenic call (Test System: AMES SALMONELLA TYPHIMURIUM, Strain/Indicator: TA98, Metabolic Activation: NONE, Method: PREINCUBATION) is reported as “active; positive” and the mutagenic call [1] is reported as “active; positive”. The mutagenic call (Test System: AMES SALMONELLA TYPHIMURIUM, Strain/Indicator: TA98, Metabolic Activation: S-9, Method: STANDARD PLATE) was “active; positive”, the mutagenic call [2] was “active; positive” and the mutagenic call (Test System: AMES SALMONELLA TYPHIMURIUM, Strain/Indicator: TA100, Metabolic Activation: S-9, Method: STANDARD PLATE) was “active; positive”. The mutagenic call [3] was “inactive; negative”, the mutagenic call (Test System: AMES SALMONELLA TYPHIMURIUM, Strain/Indicator: YG1024, Metabolic Activation: NONE, Method: PREINCUBATION) was “active; positive” and the mutagenic call (Test System: E. COLI, Strain/Indicator: WP2, Metabolic Activation: NONE, Method: PREINCUBATION) was “active; positive”. For the same compound, the mutagenic call (Test System: E. COLI, Strain/Indicator: WP2 UVRA(P), Metabolic Activation: NONE, Method: STANDARD PLATE) was “active; positive”, the mutagenic call (Test System: E. COLI, Strain/Indicator: WP2 UVRA, Metabolic Activation: NONE, Method: FLUCTUATION TEST) was “active; positive” and the mutagenic call (Test System: E. COLI, Strain/Indicator: WP2 UVRA, Metabolic Activation: NONE, Method: PREINCUBATION) was “active; positive”. The mutagenic call (Test System: E. COLI, Strain/Indicator: WP2 UVRA, Metabolic Activation: NONE, Method: STANDARD PLATE) was “active; positive”.
